# Tests used:
# [1] = biological target: T1, interaction between CRBN and GSPT1 (Homo sapiens, UniProt P15170+Q96SW2); assay: SPARK reporter CRBN-EGFP-HOTag3 / GSPT1-HOTag6 in HEK293 cells; type: cell-based; conditions: time-lapse imaging
# T1 construct: expressed in transfected cells; host or cells: HEK293
# Text: Many analogs and derivatives of IMiDs have recently been designed and explored as drug leads. […] To examine whether SPARK can detect CC-885 induced protein-protein interactions, HOTag6 was genetically fused to GSPT1 and co-expressed with CRBN-EGFP-HOTag3 in HEK293 cells. […] Thus, SPARK also detects CC-885 induced protein-protein interactions.
# [2] = test system: protein kinase A (PKA) activity; assay: PKA-SPARK phase separation kinase reporter in HEK293 cells; type: cell-based, human; conditions: for effect of pre-incubation on isoprenaline-induced droplet formation / PKA-SPARK signal: HEK293 cells, pre-incubation before isoprenaline
# Text: To design a SPARK-based PKA, reporter (named PKA-SPARK), a consensus peptide sequence was utilized that is specifically phosphorylated by PKA, as described in Durocher et al., (2000). The molecular basis of FHA domain: phosphopeptide binding specificity and implications for phospho-dependent signaling mechanisms. Mol Cell 6, 1169-1182. To introduce PKA activity-dependent PPI, forkhead-associated domain 1 (FHA1) was sued, which is a phosphothreonine binding domain. […] These two fusion sequences were connected by a “self-cleaving” 2A sequence. The rationale was that substrate and the FHA1 would induce PKA activity-dependent protein-protein interaction, the two HOTags introduce multivalency; and upon PKA activation, multivalent protein-protein interactions would be induced, leading to phase separation and formation of EGFP droplets.
# To test the construct, the β-adrenergic agonist isoprenaline was added to HEK293 cells that endogenously express β-adrenergic receptors (βAR). βAR activation induces GDP for GTP exchange in the heteratrimeric G protein Gs, and GTP-bound Gαs activates adenylyl cyclase (AC), which converts ATP into cAMP that activates PKA. […] In order to confirm that the phase separation results from phosphorylation of PKA-SPARK at the expected threonine residue, we changed the threonine to alanine in the PKA substrate sequence.
# Next it was tested whether phase separation of the reporter is reversible, i.e. whether the EGFP droplets would disassemble or dissolve when PKA is inactivated. Cells were pre-incubated with isoprenaline to induce phase separation, then isoprenaline was removed and H89 added to inactivate PKA. […] As a control, the EGFP droplets were stable over time in the cells with removal of isoprenaline but addition of medium without H89. […] To examine whether PKA-SPARK could quantitatively measure the droplets' disassembly over time after PKA inhibition, we defined “SPARK signal” as the sum of fluorescent droplets' pixel intensity divided by sum of cells' pixel intensity. Upon addition of H89, the SPARK signal decreased over time. In contrast, for the control the SPARK signal remained constant over time.
# Time-lapse fluorescence imaging of PKA-SPARK was performed at 10 seconds per frame. […] PKA activation upon addition of isoprenaline was confirmed by AKAR2 reporter. Small droplets of PKA-SPARK were detected as early as at 20 seconds upon addition of isoprenaline. The quick activation of PKA is consistent with rapid activation of the βAR-cAMP-PKA pathway. The small droplets grew quickly and coalesced into large and intensively fluorescent droplets, which were up to 10-fold brighter than the cellular fluorescence before PKA activation. […] Therefore, PKA-SPARK achieves up to 10-fold fluorescence increase, compared to prior art AKAR2 and PKA-KTR reporters, which have ˜10% and ˜30% fluorescence ratio change, respectively. […] The results also verified that PKA-SPARK could detect PKA activity over a wide range of reporter expression. Lastly the concentration of PKA-SPARK (2-10 μM) appeared to have no effect on kinetics of droplet assembly and disassembly.
# In additional experiments, PKA was activated via the G-coupled GPCR βAR. Isoprenaline was added to activate endogenous βARs in HEK293 cells.
# ERK activity = assay: ERK-SPARK phase separation kinase reporter in HEK293 cells; conditions: for effect of pre-incubation on phase separation of ERK-SPARK upon addition of EGF: HEK293 cells, pre-incubation before EGF
# Text: To determine whether the SPARK design generalizes, the highly conserved kinase ERK was utilized in a second pair of reporter fusion proteins. To design a SPARK-based ERK reporter (ERK-SPARK), the ERK activity-sensing motifs that were used for previous FRET-based ERK reporters were employed. One of the ERK activity-sensing motifs is a phosphopeptide sequence from Cdc25C, followed by an ERK-specific docking site that determines substrate specificity. The companion fragment is a WW domain that binds the phosphorylated substrate. The ERK substrate sequence was fused to EGFP followed by HOTag3, and the WW domain was fused to EGFP followed by HOTag6. The two fusions were connected by a “self-cleaving” 2A sequence. The pair of reporter fusion proteins was expressed in HEK293 cells exposed to epidermal growth factor (EGF). EGF binds the EGF receptor, resulting in ERK activation. […] Because the ERK docking site was previously shown to be critical for ERK recognition and binding to substrate, a reporter lacking the 4-amino-acid docking site was generated.
# To investigate whether ERK-SPARK could detect GPCR-induced ERK activity, a hexapeptide full agonist for protease-activated receptor-1 was added to HEK293 cells.
# PKA activity = assay: PKA-SPARK in zebrafish embryo muscle cells; type: in vivo; conditions: 24 hrs APF, upon addition of isoprenaline
# T1 sequence (Q96SW2 whole entry): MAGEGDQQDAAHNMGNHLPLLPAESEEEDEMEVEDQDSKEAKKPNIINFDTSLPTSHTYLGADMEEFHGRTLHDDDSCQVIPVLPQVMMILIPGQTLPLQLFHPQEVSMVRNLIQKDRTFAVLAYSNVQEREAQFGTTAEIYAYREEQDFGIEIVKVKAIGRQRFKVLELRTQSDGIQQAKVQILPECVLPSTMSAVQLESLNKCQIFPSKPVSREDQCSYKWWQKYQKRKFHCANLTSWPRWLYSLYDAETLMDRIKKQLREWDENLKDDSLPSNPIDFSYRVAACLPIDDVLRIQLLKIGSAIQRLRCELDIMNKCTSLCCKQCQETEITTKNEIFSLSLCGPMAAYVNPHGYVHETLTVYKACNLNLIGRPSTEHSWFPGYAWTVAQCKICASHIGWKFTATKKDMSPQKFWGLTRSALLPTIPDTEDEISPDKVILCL
# T1 sequence (P15170 whole entry): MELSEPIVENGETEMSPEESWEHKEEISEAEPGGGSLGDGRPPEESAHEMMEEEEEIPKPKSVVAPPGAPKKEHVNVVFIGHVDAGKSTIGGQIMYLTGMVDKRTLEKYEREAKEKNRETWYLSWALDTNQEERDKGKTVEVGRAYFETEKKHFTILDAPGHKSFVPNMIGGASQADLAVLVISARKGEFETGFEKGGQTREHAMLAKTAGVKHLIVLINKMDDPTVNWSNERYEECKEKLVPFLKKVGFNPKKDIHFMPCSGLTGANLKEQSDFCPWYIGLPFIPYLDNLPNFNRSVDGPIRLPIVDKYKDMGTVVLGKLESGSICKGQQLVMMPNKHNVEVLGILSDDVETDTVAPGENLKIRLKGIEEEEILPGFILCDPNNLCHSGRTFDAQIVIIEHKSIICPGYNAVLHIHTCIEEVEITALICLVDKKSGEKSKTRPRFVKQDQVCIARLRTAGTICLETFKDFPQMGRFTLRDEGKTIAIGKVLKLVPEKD
compound,measurement,setting,value
Cc1ccc(NC(=O)NCc2ccc3c(c2)CN(C2CCC(=O)NC2=O)C3=O)cc1Cl (centres unmarked) [CC-885],droplet formation (punctal green fluorescence) upon addition,[1],intensely bright and punctal green fluorescence
O=S(=O)(NCCNC/C=C/c1ccc(Br)cc1)c1cccc2cnccc12 [H89],effect of pre-incubation on isoprenaline-induced droplet formation / PKA-SPARK signal,[2],abolished isoprenaline-induced droplet formation
same,EGFP droplet disassembly when PKA is inactivated,"[2]; cells pre-incubated with isoprenaline, isoprenaline removed, H89 added",EGFP droplets disassembled rapidly
O=C(NOC[C@H](O)CO)c1ccc(F)c(F)c1Nc1ccc(I)cc1F [PD 0325901],effect of pre-incubation on phase separation of ERK-SPARK upon addition of EGF,ERK activity,abolished phase separation
C[S+]([O-])c1ccc(-c2nc(-c3ccncc3)c(-c3ccc(F)cc3)[nH]2)cc1 (centres unmarked) [SB 203580],effect of pre-incubation on phase separation of ERK-SPARK upon addition of EGF,ERK activity,did not abolish formation of EGFP droplets
COc1ccccc1OCCNCC(O)COc1cccc2[nH]c3ccccc3c12 (centres unmarked) [carvedilol],effect of pre-incubation on isoprenaline-induced droplet formation / PKA-SPARK signal,[2],abolished the sustained PKA-SPARK signals
CC(C)NCC(O)c1ccc(O)c(O)c1 (centres unmarked) [isoprenaline],EGFP droplet formation in muscle cells,PKA activity,EGFP droplet formation
same,persistence of EGFP droplets (sustained PKA activity),[2]; endogenous βARs in HEK293 cells,at least 3 hrs
same,fluorescent droplet formation upon addition of βAR agonist,[2]; reporter-expressing HEK293 cells,fluorescent droplets formed
same,earliest detection of small PKA-SPARK droplets after addition,[2]; time-lapse imaging at 10 seconds per frame,20 s
"EGF: epidermal growth factor; binds the EGF receptor, resulting in ERK activation (NSDSECPLSHDGYCLHDGVCMYIEALDKYACNCVVGYIGERCQYRDLKWWELR; UniProt P01133 971-1023, looked up)",EGFP droplet formation upon addition of stimulus,ERK activity; ERK-SPARK expressing HEK293 cells,EGFP droplets formed

# — patent publication US11448654B2, “Protein-protein interaction assessed by detecting localized coiled coil subunits” (The Regents of the University of California, priority 2017, dated 2022)
